Laboratory results reported in patent publication US12544371B2, “Methods and compositions for treating acute lung injury and acute respiratory distress syndrome” (CalciMedica, Inc., priority 2020, dated 2026).
Read-outs that look alike come from different tables or passages of the source.

Columns and labels:
[1] = test system: IL-2 release by human CD4+ T cells; experiment: IL-2 release by human CD4+ T cells, isolated cell assay; format: cell-based; details: SEM (n), read-out: Compound 1 IC50, IL-2 release by human CD4+ T cells
From the text: (§1) CRAC channels may play a proximal role in a calcium-calcineurin pathway leading to cytokine release in immune cells.

[2] = test system: IFNγ released from human PBMCs; experiment: Cytokine released from human PBMCs: IFNγ; format: cell-based
From the text: as §1

[3] = test system: IL-1β released from human PBMCs; experiment: Cytokine released from human PBMCs: IL-1β; format: cell-based
From the text: as §1

[4] = test system: IL-6 released from human PBMCs; experiment: Cytokine released from human PBMCs: IL-6; format: cell-based
From the text: as §1

[5] = Repeat-dose toxicity study in rats; format: in vivo; details: rat
[6] = test system: bacterial reverse mutation; experiment: Ames bacterial reverse mutation assay; format: cell-based; details: in vitro
[7] = test system: human peripheral blood lymphocytes; experiment: In vitro micronucleus assay; format: cell-based
[8] = Mouse caerulein-induced pancreatitis model; format: in vivo; details: single IP dose
From the text: (§2) Potential efficacy of Compound 1 in treating acute lung injury was established in three diverse in vivo models of AP that cause both pancreatic damage and lung inflammation (TLCS-induced, FAEE-induced, and caerulein-induced acute pancreatitis models).

[9] = Mouse TLCS-induced and FAEE-induced pancreatitis models; format: in vivo
From the text: as §2

[10] = Phase 2 open-label study in acute pancreatitis with SIRS and hypoxemia (Compound 1 Test 201); format: in vivo, human
Protocol: A Phase 2, open-label, dose-response, multi-center study of Compound 1 was conducted in patients with AP and accompanying SIRS and hypoxemia (Compound 1 Test 201). One patient was randomized having SIRS alone at Screening. The primary objective of the study was to evaluate safety and tolerability; the secondary objective was to evaluate efficacy and the PK profile of Compound 1.
The study had 2 phases; the Initial Phase consisted of 2 concurrently enrolled cohorts and the Second Phase consisted of 2 concurrently enrolled cohorts. In total, it was planned to have 4 Cohorts containing 24 adult male and female patients with AP and accompanying SIRS and hypoxemia. In the Initial Phase, 4 female patients were to be randomized in a 3:1 ratio to receive Compound 1+Supportive Care (SC) or SC alone (Cohort 1). Concurrently, 4 male patients were to be randomized in a 3:1 ratio to receive Compound 1+SC or SC alone (Cohort 2). Doses were to be 1.0 mg/kg on Day 1 and 1.4 mg/kg daily on Days 2, 3 and 4 (low dose regimen). In the Second Phase, 8 female patients were to be randomized in a 3:1 ratio to receive Compound 1+SC or SC alone (Cohort 3). Concurrently, 8 male patients were to be randomized in a 3:1 ratio to receive Compound 1+SC or SC alone (Cohort 4). Planned doses for both Cohorts 3 and 4 were to be 2.08 mg/kg daily on Days 1 and 2 and 1.6 mg/kg daily on Days 3 and 4 (high dose regimen).
The decision to start Cohort 3 in the Second Phase was made after study personnel reviewed the available efficacy, safety and tolerability data from Cohort 1 and discussed this with the Principal Investigator (PI). […] Cohort 3, therefore, received the same dose level and schedule as Cohort 1, […] on Day 1 and 1.4 mg/kg daily on Days 2, 3 and 4. The decision to start Cohort 4 in the Second Phase of the study was made after study personnel reviewed the available efficacy, safety and tolerability data from Cohort 2 and discussed this with the Principal Investigator. Cohort 4, therefore, received the original planned dose level and schedule; 2.08 mg/kg daily on Days 1 and 2 and 1.6 mg/kg daily on Days 3 and 4.
The first infusion of Compound 1 was started within 6 (up to 8) hours of the patient or LAR providing informed consent and was administered as a continuous IV infusion over 4 hours. Subsequent infusions were to be started every 24 hours (±1 hour) from the start of the first infusion.

[11] = PD/PK study in patients with acute pancreatitis (Compound 1 Test 202); format: in vivo, human
Protocol: In Compound 1 Test 202, a pharmacodynamic and pharmacokinetic study of Compound 1 in patients with acute pancreatitis, patients with AP (regardless of the presence of SIRS and/or hypoxemia) were administered a single IV infusion of 2.08 mg/kg of an injectable emulsion of Compound 1 and blood, plasma and serum were collected for analysis. It was planned to initially enroll 5 patients and then to enroll an additional 4 patients as needed. Ultimately, 7 patients were screened for the study, and all 7 enrolled in and completed the study. On Days 1 and 2, blood and plasma samples for PD and PK analyses, respectively, were obtained 30 minutes after completing the administration of Compound 1 and 24 hours from the start of the administration of Compound 1. In patients hospitalized at Day 5 and 10, blood and plasma samples were obtained; if discharged earlier, samples were obtained at the time of discharge. After discharge, patients returned to the hospital on Day 30 to provide final blood and plasma samples.

SMILES: Cc1cccc(F)c1C(=O)Nc1cnc(-c2cc3c(cc2Cl)OC(F)(F)O3)cn1 [Compound 1, N-(5-(6-Chloro-2,2-difluorobenzo[d][1,3]dioxol-5-yl)pyrazin-2-yl)-2-fluoro-6-methylbenzamide]
- IC50 [1]: 4 ± 0.5 nM
- IC50 ([2]; Homo sapiens, PBMC, mean of replicates, read-out: Mean IC50, IFNγ released from human PBMCs): 138 nM
- IC50 ([2]; Homo sapiens, PBMC, single replicates, read-out: Replicate IC50 values, IFNγ released from human PBMCs): 175 nM
- IC50 ([2]; single replicates, read-out: Replicate IC50 values, IFNγ released from human PBMCs): 102 nM
- IC50 ([3]; Homo sapiens, PBMC, mean of replicates, read-out: Mean IC50, IL-1β released from human PBMCs): 240 nM
- IC50 ([3]; Homo sapiens, PBMC, single replicates, read-out: Replicate IC50 values, IL-1β released from human PBMCs): 264 nM
- IC50 ([3]; single replicates, read-out: Replicate IC50 values, IL-1β released from human PBMCs): 217 nM
- IC50 ([4]; Homo sapiens, PBMC, mean of replicates, read-out: Mean IC50, IL-6 released from human PBMCs): 135 nM
- IC50 ([4]; Homo sapiens, PBMC, single replicates, read-out: Replicate IC50 values, IL-6 released from human PBMCs): 145 nM
- IC50 ([4]; single replicates, read-out: Replicate IC50 values, IL-6 released from human PBMCs): 126 nM
- NOAEL ([5]; in vivo, repeat-dose, rats, read-out: no observable adverse effect level (NOAEL)): 25 mg/kg/day
- local irritation at the injection site ([5]; repeat-dose toxicity study): no evidence of compound-related or vehicle-related local irritation
- Ames bacterial reverse mutation assay result [6]: negative
- micronucleus assay result [7]: weakly positive/equivocal
- lung myeloperoxidase; pancreas trypsin activity, myeloperoxidase activity and histopathological indices [8]: markedly reduced
- effect of timing of administration on minimizing pancreatic injury ([9]; administered early in the course of disease, later administration retains effectiveness): may be more effective
- lung myeloperoxidase; pancreas trypsin activity, myeloperoxidase activity and histopathological indices ([9]; mouse TLCS-induced and FAEE-induced pancreatitis, two IP doses): markedly reduced
- Discharge IL-6 levels, patients with 150 pg/mL ≤ IL-6 < 1000 pg/mL ([10]; 2a High Dose Regimen + SC, admission 1): 1
- Discharge IL-6 levels, patients with IL-6 ≥ 1000 pg/mL ([10]; 2a High Dose Regimen + SC, admission 2): 0
- Discharge IL-6 levels, patients with IL-6 ≥ 1000 pg/mL ([10]; 2a Low Dose Regimen + SC, admission 0): 0
- Discharge IL-6 levels, patients with 150 pg/mL ≤ IL-6 < 1000 pg/mL ([10]; 2a Low Dose Regimen + SC, admission 4): 0
- patients in whom IL-6 levels decreased to below 150 pg/mL ([10]; Tests 201 and 202 pooled, maximum IL-6 ≥150 pg/mL in the first 24 hours): 7 of 8
- procalcitonin at discharge ([10]; first critically ill AP patient): 0.24 ng/mL
- IL-6 at 120 hrs ([10]; first critically ill AP patient, IL-6 >7296 pg/mL at study entry): 66 pg/mL
- TEAEs with causality considered Possible (Chromaturia) ([10]; high dose regimen+SC): 1 TEAE
- patients with SAEs ([10]; high dose regimen+SC, 1 of 6): 17%
- patients with Acute Respiratory Distress Syndrome ([10]; high dose regimen+SC, 2 of 6): 33%
- patients with Confusional State ([10]; high dose regimen+SC, 2 of 6): 33%
- patients with Malnutrition ([10]; high dose regimen+SC, 2 of 6): 33%
- patients with severe TEAEs ([10]; high dose regimen+SC, 2 of 6): 33%
- patients with treatment-emergent AEs (TEAEs) ([10]; high dose regimen+SC, 5 of 6 patients): 83%
- patients with TEAEs leading to discontinuation of the study drug ([10]; high dose regimen+SC, 3 TEAEs): 2 patients
- deaths during the study ([10]; high dose regimen+SC, Hypoxic-Ischemic Encephalopathy, causality Unrelated): 1 death
- IL-6 levels in patients ([10]; in vivo): marked reduction
- respiratory dysfunction in patients ([10]; in vivo): beneficial effects
- safety in critically ill patients ([10]; intravenous, 90 days in patients with AP, SIRS plus hypoxemia): safe
- changes in vital signs, oxygenation, and laboratory values ([10]; low dose or high dose regimen): no untoward changes
- safety and tolerability ([10]; low dose regimen+SC and high dose regimen+SC): well tolerated
- patients with severe TEAEs ([10]; low dose regimen+SC, 0 of 8): 0%
- patients with Headache ([10]; low dose regimen+SC, 2 of 8): 25%
- patients with Hypokalemia ([10]; low dose regimen+SC, 2 of 8): 25%
- patients with SAEs ([10]; low dose regimen+SC, 2 of 8): 25%
- patients with treatment-emergent AEs (TEAEs) ([10]; low dose regimen+SC, 7 of 8 patients): 88%
- procalcitonin levels versus the standard of care ([10]; phase 2a study patients): did not increase
- procalcitonin at discharge ([10]; second critically ill AP patient): 0.30 ng/mL
- IL-6 at 120 hrs ([10]; second critically ill AP patient, IL-6 1021 pg/mL at study entry): 83 pg/mL
- patients with moderate TEAEs ([11]; 1 of 7 patients): 14%
- patients with severe TEAEs ([11]; 2 of 7 patients, also SAEs, not considered drug related): 29%
- number of TEAEs ([11]; 7 patients, single 2.08 mg/kg): 7 TEAEs
- patients who experienced TEAEs ([11]; 7 patients, single IV infusion of 2.08 mg/kg): 3 patients
- Discharge IL-6 levels, patients with IL-6 ≥ 1000 pg/mL ([11]; PK/PD Single Dose, admission 0): 0
- Discharge IL-6 levels, patients with 150 pg/mL ≤ IL-6 < 1000 pg/mL ([11]; PK/PD Single Dose, admission 1): 0
- TEAEs with causality Unlikely ([11]; of the 7 TEAEs): 2 TEAEs
- TEAEs with causality Unrelated ([11]; of the 7 TEAEs): 5 TEAEs
- mild TEAEs ([11]; of the 7 TEAEs): 3 TEAEs
- moderate TEAEs ([11]; of the 7 TEAEs): 2 TEAEs
- severe TEAEs (also SAEs) ([11]; of the 7 TEAEs): 2 TEAEs
